Measurements as given in patent US8263642B2, “Antimicrobial compounds and methods of use thereof” (Vanderbilt University, priority 2008, dated 2012).

Columns and labels:
[1] = tested on: HssRS-dependent hrtAB expression; test: Luminescence-based assay to monitor HssRS-dependent hrtAB expression (phrtABlux reporter), Newman; type: cell-based, Staphylococcus aureus; conditions: Newman; for activation at 0.0825 µM: Staphylococcus aureus, NEWMAN, read-out: % Lumi, luminescence induced by the compound compared to the heme control (82.5 nM) in the same plate; for Luminescence: raw luminescence value obtained in a luminometer
Protocol: (§1) With reference to Table 1, “Luminescence” refers to the raw luminescence value obtained in a luminomter. “Control (82.5 nm)” refers to the luminescence value obtained from heme at 82.5 nM as a positive control in the same plate as the experimental. “% lum” is the percentage of luminescence induced by the compound as compared to the heme control in the same plate. […] All of these assays are described in the application. […] “N/T” indicates the test was not performed.
A hrtAB-driven expression system was created in the pXen vector system (Xenogen) (Francis, K. P., D. Joh, C. Bellinger-Kawahara, M. J. Hawkinson, T. F. Purchio, and P. R. Contag. 2000. Monitoring bioluminescent Staphylococcus aureus infections in living mice using a novel luxABCDE construct. Infect Immun 68:3594-3600). This vector contains a promoterless luxCDABE operon from Photorabdus luminescens which produces blue green light when expressed. The luxCDABE encodes for a fatty acid reductase (LuxCDE) that produces a long chain fatty aldehyde which, when combined with cellular flavin mononucleotide, is oxidized by a luciferase (LuxAB) to produce light. Therefore, this system is useful in that it bypasses the need for substrate addition and is capable of generating light in the absence of any added reagents. Furthermore, the luminescent signal produced by the combined activities of LuxAB and LuxCDE is of sufficient intensity to be visualized in unmanipulated intact bacteria.
To establish an assay that measures HssRS-dependent expression of luxCDABE, the promoter for hrtAB upstream of luxCDABE was cloned and transformed this vector (phrtABlux) into wildtype and ΔhssR S. aureus. A promoterless vector (plux) and a plasmid containing luxCDABE under the control of a constitutive promoter (psrtAlux) (Mazmanian, S. K., G. Liu, H. Ton-That, and O. Schneewind. 1999. “Staphylococcus aureus sortase, an enzyme that anchors surface proteins to the cell wall.” Science 285:760-763) were included as negative and positive controls, respectively. Initially, wildtype S. aureus harboring either plux, phrtABlux, or psrtAlux were plated on solid medium that either lacked heme or contained 4 μM heme. Only wildtype S. aureus containing psrtAlux produced light on solid media regardless of the presence or absence of heme. […] Light was not produced by bacteria containing plux in either condition.
To adapt this system for a HTS to measure ligand recognition by HssRS, luminescence of wildtype and ΔhssR harboring the above listed plasmids in liquid media with or without heme was measured. […] Taken together, these experiments establish a whole cell […] assay that can identify small molecule modifiers of HssRS. This screen, in some aspects, can identify molecules that can be used as molecular probes in structure-function analyses to determine the mechanism by which S. aureus sense host heme.
Upon staphylococcal exposure to heme, HssRS senses heme and activates expression of hrtAB. This process can be measured using a reporter assay that employs a vector encoding the light-producing luxCDABE operon under the control of the hrtAB promoter. This assay results in whole cell luminescence upon HssRS-dependent activation of hrtAB, forming the foundation for the development of an assay suitable for high-throughput screens for small molecule activators of HssRS.
To develop an automated HTS format, S. aureus wildtype and ΔhssR harboring reporter constructs (psrtAlux, phrtAlux, plux) can be grown for 15 hours at 37° C. in tryptic soy broth (TSB) containing 10 μg/ml chloramphenicol. The addition of chloramphenicol is useful to ensure that the staphylococci propagate the reporter plasmid upon cell division. Following growth, bacterial cultures can be normalized and 2×10^7 cells (approximately 2 μl) can be added to individual wells of black walled, clear bottomed, 96-well plates. […]

[2] = tested on: hrtAB-driven expression of the xylE reporter gene; test: XylE reporter assay (hrtAB promoter-xylE), Newman; type: cell-based, Staphylococcus aureus; conditions: for XylE (0.5): level of XylE induction at 0.5 uM of the compound; for XylE (5.0): level of XylE induction at 5.0 uM of the compound; for XylE (50.0): level of XylE induction at 50.0 uM of the compound; for XylE (0.05): level of XylE induction at 0.05 uM of the compound
Protocol: as §1
Compounds that activate HssRS-driven hrtAB expression in the luciferase-based screen can be subjected to two separate counter screens to confirm these compounds as active hits. First, compounds of interest can be tested for their ability to activate expression of hrtAB in the XylE expression assay described hereinbelow. This is an in vitro assay that measures hrtAB-driven expression of the xylE reporter gene. The XylE-based reporter assay utilizes slightly more manipulations than the primary luciferase-based screen. […] It should be appreciated that a shortcoming of this counter screen is that it measures reporter gene expression, which is a similar activity as that measured in the primary assay. To address this shortcoming, compounds that are positive in both XylE- and luciferase-based assays can be subjected to a second counter screen as described hereinbelow.
S. aureus strains harboring the appropriate reporter construct were inoculated into 500 μl of TSB containing 10 μg/ml chloramphenicol in 1.5 ml tubes. Cultures were grown O/N at 37° C. with shaking. Bacteria were pelleted by centrifugation and spent medium was aspirated. The pellet was washed once with 500 μl of 20 mM potassium phosphate, pH 7.6, and resuspended in 150 μl of 100 mM potassium phosphate buffer, pH 8.0, 10% (v/v) acetone, 25 μg/ml lysostaphin. After 20 minute incubation at 37° C. and 5 minute incubation on ice, samples were centrifuged at 20,000 g for 30 minutes at 4° C. 1-10 μl of supernatant was added to a 96-well plate and 200 μl of 100 mM potassium phosphate, pH 8.0, 0.2 mM pyrocatechol was added to each well. Formation of 2-hydroxymuconic semialdehyde was tracked by measuring the absorbance at 375 nm every minute for 30 minutes on a Varian MP 50 microplate reader. Protein concentration in samples was determined by BCA (Pierce). One unit of specific activity of XylE in a sample is defined as the formation of 1 nmol of 2-hydroxymuconic semialdehyde per minute per milligram of cellular protein at 30° C. (Chien, Y., Manna, A. C., Projan, S. J., and Cheung, A. L. 1999, “SarA, a global regulator of virulence determinants in Staphylococcus aureus, binds to a conserved motif essential for sar-dependent gene regulation. J. Biol. Chem. 274, 37169-37176).
The hrtAB intergenic region was fused to the xylE structural gene by PCR-SOE. In the first reaction, primer P1B:[…] and P2B:[…] were used to amplify the hrtAB intergenic region from S. aureus strain Newman genomic DNA. In the second PCR reaction primers P3B:[…] and P4B:[…] were used to amplify the xylE structural gene using pALC1639 template DNA (provided by Dr. Ambrose Cheung) and PCR product purified using a Qiagen gel extraction kit. For the PCRSOE reaction, a 1:300 dilution of purified reaction 1 and reaction 2 PCR products was mixed and amplified by PCR using […]. This yielded a construct in which the hrtAB intergenic region is fused to the xylE gene in such a manner that the position of the start codon for xylE corresponds to the position of the start codon for […] in the hrtAB locus. The hrtAB promoter-xylE fusion DNA was then subcloned into pOS1. As a control we also constructed a promoterless xylE vector. The xylE gene was amplified from pACL1639 template DNA using the primers P1C:[…] and P2C:[…] and then cloned into the pOS1 vector.

Row | Structure (SMILES) | activation at 0.0825 µM [1] | Luminescence [1] | XylE (0.5) [2] | XylE (5.0) [2] | XylE (50.0) [2] | XylE (0.05) [2]
1 | COc1cc(/C=C/c2ccc3cccc(O)c3n2)c(Cl)cc1O | 533% | 1722 | 1 | 0.5 | 0 | –
2 | COc1ccc(OC(=O)c2ccc(N3C(=O)C4C5CCC(C5)C4C3=O)cc2)cc1 (centres unmarked) | – | 3096 | 0.09 | 0.03 | 0.02 | –
3 | Oc1ccc(Nc2nc(-c3ccc(Cl)cc3)nc3ccccc23)cc1 | – | 3096 | 1 | 1 | 1 | 1
4 | Cc1cc(O)c(NC(=S)NC(=O)c2ccc(C(C)(C)C)cc2)cc1C | 127% | 808 | 0.2 | 0.2 | 0.3 | 0.09
5 | Cc1ccc(O)c(NC(=O)c2nn3c(c2Br)NC(c2ccco2)CC3C(F)(F)F)c1 (centres unmarked) [drawing 60] | – | 1949 | 0.7 | 11 | 1 | 0.07
6 | COC(=O)CCNc1nc(-c2ccc(Br)cc2)nc2ccccc12 | 484% | 1714 | 0.03 | 0.02 | 0.8 | –
7 | C/C=C/C=N/Nc1nnc2c(n1)[nH]c1ccccc12 | 202% | 1696 | 0.06 | 0.1 | 1 | 0.04
8 | O=c1c2ccccc2nc(/C=C\c2ccccc2F)n1-c1ccccc1F | – | 3115 | 1 | 0 | 0 | –
9 | Cc1cccc(NC(=S)N/N=C/c2cc(Br)ccc2O)c1 | 161% | 589 | 0.2 | 0 | 0 | 0.09
10 | O=C(Nc1ccccc1O)c1cccc(N2C(=O)c3ccc([N+](=O)[O-])cc3C2=O)c1 | 675% | 1850 | 0.02 | 0 | 0.03 | –
11 | Brc1ccc2[nH]cc(-c3nc(-c4ccccc4)c(-c4ccccc4)[nH]3)c2c1 | – | 2549 | 2 | 1 | 1 | 0.4
12 | C=CCc1ccccc1Oc1ccc(C(F)(F)F)cn1 | 27.5% | 1474 | 0.02 | 0.07 | 0.09 | 0.08
13 | O=C(Nc1ccc(-c2csc(Nc3cccc(Cl)c3)n2)cc1)c1ccccc1 | – | 3586 | 0.07 | 1 | 0.08 | 1
14 | COC(=O)C1=C(C)NC(=O)NC1c1cn(-c2ccccc2)nc1-c1ccc(OC)c(OC)c1 (centres unmarked) | 866% | 1854 | 0.04 | 0.03 | 0.05 | –
15 | CCOC(=O)c1c(NC(=O)C2CCCCC2)sc(C(=O)Nc2ccc(C)c(Cl)c2)c1C | – | 2374 | 2 | 1 | 1 | 8
16 | COc1ccc(Cl)cc1NC(=O)Nc1ccc(Cl)cc1 | 180% | 586 | 0.03 | 0 | 0.03 | 1
17 | O=C(Nc1ccccc1C(=O)Nc1ccc(Cl)cc1)c1ccccc1 | 92% | 309 | 0.08 | 0.08 | 0.06 | 0.05
18 | Nc1ccccc1C(=O)Nc1nc2ccc(Cl)cc2s1 | – | 1741 | 0.01 | 0.03 | 0.04 | –
19 | O=C(Nc1ccc(/N=N/c2ccccc2)cc1)c1cccnc1 | – | 3086 | 1 | 1 | 0.7 | 0
20 | c1cc(-c2ccc3nsnc3c2)c2cc3nsnc3cc2c1 | 347% | 1630 | 0.06 | 0 | 0.9 | –
21 | COc1ccccc1-c1csc(NC(=O)c2ccc(-c3ccccc3)cc2)n1 | – | 1704 | 0.05 | 1 | 1 | –
22 | Brc1ccc(CN2CCN(c3ccccc3)CC2)o1 | 39.3% | 166 | 0.05 | 1 | 0.02 | 0.07
23 | COc1ccccc1N1C(=O)c2ccc(C(=O)OC(C)C(=O)c3ccc(C)cc3)cc2C1=O (centres unmarked) | – | 3189 | 0.6 | 0.7 | 1 | 1
24 | O=C(Nc1c2c(nn1-c1ccc(Cl)cc1)CSC2)c1cccc(C(F)(F)F)c1 | – | 2866 | 0.03 | 0.04 | 0.06 | –
